The values below come from paper PMC12040169 (PLOS Biology, 2025).

This data set in a line: in vitro. Particulars: human, hela cells, % viability.

One may read the viability as a read-out of living cells in per cent, often relative to untreated cells. In the case of `Cc1ccc2c(c1)OC1(CCN(C(=O)c3c(-c4ccccc4)nc4ccccn34)CC1)CC2=O` [CBK167871], the viability at 28.5 h, 10 µM is 92.9%.
As for `CCOc1cc(OCC)cc(C(=O)N2CCC3(CC2)CC(=O)c2c(OC)cccc2O3)c1` [CBK168012], the viability at 28.5 h, 10 µM amounted to 108%.
In the case of `CCOc1cc(OCC)cc(C(=O)N2CCC3(CC2)CC(=O)c2ccc(OCC)cc2O3)c1` [CBK168014], the viability at 28.5 h, 10 µM was found to be 98.8%.
For `CCOc1cc(OCC)cc(C(=O)N2CCCC3(CC(=O)c4ccc(C)cc4O3)C2)c1` (centres unmarked) [CBK168067], the viability at 28.5 h, 10 µM was determined as 93.9%.
For `COc1cc(OC)cc(C(=O)N2CCC3(CC2)CC(=O)c2cc(F)cc(F)c2O3)c1` [CBK168089], the viability at 28.5 h, 10 µM was found to be 108%.
Regarding `CCOc1cc(OCC)cc(C(=O)N2CCCC3(CC2)CC(=O)c2ccc(C)cc2O3)c1` (centres unmarked) [CBK168241], the viability at 28.5 h, 10 µM was determined as 98.2%.
As for `O=C(NC1CCNCC1)c1cc2ccccc2[nH]1` [CBK168609], the viability at 28.5 h, 10 µM turned out to be 84.6%.
On the same count and under the same terms, the result for `CON=Cc1c[nH]c2ccccc12` [CBK168628] reads 93.7%; that for `C(=N/OCc1ccccc1)/c1c[nH]c2ccccc12` [CBK168629], 79.3%.
For `CN1CCC(NC(=O)c2cc3ccccc3[nH]2)CC1` [CBK168633], the viability at 28.5 h, 10 µM was found to be 88.3%.
In the case of `CC12CCCN1CCCN2C(=O)c1c[nH]c2ccccc12` (centres unmarked) [CBK169228], the viability at 28.5 h, 10 µM turned out to be 87.2%.
Regarding `CC(C)(C)COC(=O)N1CCC(N2CCOc3ccc(-c4ccc(S(C)(=O)=O)cc4)cc3C2)CC1` [CBK169264], the viability at 28.5 h, 10 µM was 83%.
For the molecule `CS(=O)(=O)c1ccc(-c2ccc3c(n2)CCN(C2CCN(C(=O)OCc4ccccc4)CC2)C3)cc1` [CBK169530], the viability at 28.5 h, 10 µM is 81.8%.
Turning to `COc1cc(C(=O)N2CCC3(CC2)CC(=O)c2cc(-c4cccnc4)ccc2O3)cc(OC)c1C` [CBK169606], the viability at 28.5 h, 10 µM stood at 112%.
For the molecule `CN(C)C1CCN(C(=O)c2ccc(-c3cnc(OCC4CCN(C(=O)OC(C)(C)C)CC4)nc3)cc2)C1` (centres unmarked) [CBK169767], the viability at 28.5 h, 10 µM came to 113%.
As for `CN1CCN(C(=O)c2ccc(-c3cnc(OCC4CCN(C(=O)OC(C)(C)C)CC4)nc3)cn2)CC1` [CBK170021], the viability at 28.5 h, 10 µM is 93.5%.
Turning to `CC(C)(C)OC(=O)N1CCC(COc2ncc(-c3ccc(C(=O)N4CCC[C@@H]4CO)nc3)cn2)CC1` [CBK170022], the viability at 28.5 h, 10 µM was 90.9%.
For `CC(=O)NCCNC(=O)c1ccc(-c2cnc(OCC3CCN(C(=O)OC(C)(C)C)CC3)nc2)cn1` [CBK170023], the viability at 28.5 h, 10 µM worked out at 104%.
On to `COc1cc(C(=O)N2CCC3(CC2)CC(=O)c2ccc(-c4ccc(NS(C)(=O)=O)cc4)cc2O3)cc(OC)c1C` [CBK170163], for which the viability at 28.5 h, 10 µM came to 90.8%.
`CC(=O)N1CCN(c2nnc(-c3ccccc3)o2)CC1` [CBK170332]: the viability at 28.5 h, 10 µM is 87.9%.
Same read-out and setting: the result for `COc1cc(C(=O)N2CCC3(CC2)CC(=O)c2cc(-c4cccc(C)c4)ccc2O3)cc(OC)c1C` [CBK170341] reads 87.7%; that for `Cc1c(S(=O)(=O)N2CCN(C)CC2)sc2ccc(C(C)C)cc12` [CBK170362], 90.1%; that for `CC(C)OC(=O)C(NC(=O)OC(C)(C)C)c1ccccc1` (centres unmarked) [CBK170399], 90.4%.
With `CCOC(=O)N1CCC(Nc2nc3ccccc3nc2OCc2cc(C)on2)CC1` [CBK171825], the viability at 28.5 h, 10 µM amounted to 89.2%.
`CCC(=O)N1CCC(NC(=O)N(CCc2ccccn2)Cc2ccccc2)CC1` [CBK171898]: the viability at 28.5 h, 10 µM stood at 90.9%.
On to `Cn1cccc1C(=O)N1CCC(OCc2cnc(-c3ccc(S(C)(=O)=O)cc3)cn2)CC1` [CBK172007], for which the viability at 28.5 h, 10 µM is 106%.
In the case of `CC1(COC(=O)N2CCC(OCc3cnc(-c4ccc(S(C)(=O)=O)cc4)cn3)CC2)COC1` [CBK172009], the viability at 28.5 h, 10 µM came to 86.7%.
`Fc1ccccc1C1CCN(c2cncc(N3CCNCC3)n2)CC1` [CBK172236G]: the viability at 28.5 h, 10 µM amounted to 122%.
With `CC(C)(C)OC(=O)N(c1cncc(N2CCNCC2)n1)[C@@H]1CCOc2ccccc21` [CBK172251G], the viability at 28.5 h, 10 µM was determined as 109%.
In the case of `c1ccc2c(c1)CCC(Oc1cncc(N3CCNCC3)n1)C2` (centres unmarked) [CBK172295G], the viability at 28.5 h, 10 µM was 97%.
Still for that read-out and setting: under `COc1cccc2c1OCC[C@@H]2Oc1cncc(N2CCNCC2)n1` [CBK172305G] stands 106%; under `Clc1ccc2c(c1)OCC[C@@H]2Oc1cncc(N2CCNCC2)n1` [CBK172313G], 86.2%.
For `Cc1ccc2c(c1)C(Oc1cncc(N3CCNCC3)n1)CCO2` (centres unmarked) [CBK172334G], the viability at 28.5 h, 10 µM is 99.7%.
For the molecule `c1ccc(N2CCOCC2)c(COc2cncc(N3CCNCC3)n2)c1` [CBK172351G], the viability at 28.5 h, 10 µM amounted to 105%.
As to `CC(C)(C)OC(=O)N1CCN(c2cncc(OC3CSCc4ccccc43)n2)CC1` (centres unmarked) [CBK172354], the viability at 28.5 h, 10 µM was determined as 105%.
With `Cc1sc(-c2ccc(C(F)(F)F)cc2)nc1COc1cncc(N2CCNCC2)n1` [CBK172383G], the viability at 28.5 h, 10 µM worked out at 85.6%.
As to `c1ccc2c(c1)CCC[C@H]2Oc1cncc(N2CCNCC2)n1` [CBK172388G], the viability at 28.5 h, 10 µM was 90.7%.
Turning to `N[C@H](CCc1nc2ccccc2[nH]1)C(=O)O` [CBK172614], the viability at 28.5 h, 10 µM came to 98.2%.
On to `C[S+]([O-])c1ccc(-c2ccc(CN(C3CC3)C3CCN(c4ncccn4)CC3)cn2)cc1` (centres unmarked) [CBK172877], for which the viability at 28.5 h, 10 µM stood at 90.2%.
As to `N#CCc1c(-c2ccc(Br)cc2)nc2ccccn12` [CBK172896], the viability at 28.5 h, 10 µM worked out at 100%.
As for `CN(Cc1cnc(-c2ccncc2)cn1)C1CCN(C(=O)OC(C)(C)C)CC1` [CBK172979], the viability at 28.5 h, 10 µM is 93.4%.
Regarding `Cc1ccc(S(=O)(=O)Nc2ccc3c(ccn3CCC3CCN(C(=O)OC(C)(C)C)CC3)c2)cc1Cl` [CBK172990], the viability at 28.5 h, 10 µM was 94.6%.
Same read-out and setting: under `CC(C)(C)OC(=O)N1CCC(C(Cc2ccc(-c3ccc(S(C)(=O)=O)cc3)cc2)C(=O)NCCOCCO)CC1` (centres unmarked) [CBK173128] stands 83.7%; under `COCCNC(=O)C(Cc1ccc(-c2ccc(S(C)(=O)=O)cc2)cc1)C1CCN(C(=O)OC(C)(C)C)CC1` (centres unmarked) [CBK173129], 125%.
Consider `CC(C)(C)OC(=O)N1CCC(C2OCc3cc(C(=O)N4CCNC(=O)C4)ccc3O2)CC1` (centres unmarked) [CBK173277], for which the viability at 28.5 h, 10 µM was 105%.
Regarding `CCN(CC)C(=O)C1CCCN(C(=O)c2ccc3c(c2)COC(C2CCN(C(=O)OC(C)(C)C)CC2)O3)C1` (centres unmarked) [CBK173279], the viability at 28.5 h, 10 µM was determined as 100%.
Take `CC(C)COC(=O)N1CCN(C2CCc3cc(-c4ccc([S+](C)[O-])cc4)ccc3C2)CC1` (centres unmarked) [CBK173425]: the viability at 28.5 h, 10 µM stood at 89.8%.
For the molecule `CC(C)(C)OC(=O)N1CCC(C2OCc3cc(-c4ccc(C(=O)N5CCOCC5)o4)ccc3O2)CC1` (centres unmarked) [CBK173615], the viability at 28.5 h, 10 µM came to 85.6%.
For `CNC(=O)c1ccc(-c2cnc(NCC3CCN(C(=O)OC(C)(C)C)CC3)cn2)cc1` [CBK173726], the viability at 28.5 h, 10 µM came out at 111%.
With `Cc1cc(COc2nc3ccccc3nc2N2CCCC2C(=O)OC(C)(C)C)no1` (centres unmarked) [CBK173753], the viability at 28.5 h, 10 µM worked out at 85.8%.
Take `CCCNCCc1ccc(NC(=O)NCCc2ccccc2)cc1` [CBK173873T]: the viability at 28.5 h, 10 µM is 93.5%.
Take `Cc1cc(COc2nc3ccccc3nc2NCCC2=CCCCC2)no1` [CBK173982]: the viability at 28.5 h, 10 µM turned out to be 115%.
The same measure, in the same setting: the result for `Cc1cc(COc2nc3ccccc3nc2NCCCCO)no1` [CBK173985] reads 94.1%; that for `Cc1cc(COc2nc3ccccc3nc2NCCC(C)O)no1` (centres unmarked) [CBK173999], 95.7%; that for `Cc1cc(COc2nc3ccccc3nc2NC(C)C(C)C)no1` (centres unmarked) [CBK174007], 117%.
Regarding `CN(C)CCNC(=O)c1ccc(-c2ccccc2S(=O)(=O)Nc2ccc(C(=O)O)c(O)c2)cc1` [CBK174050], the viability at 28.5 h, 10 µM was determined as 106%.
`NC1CCN(c2ncccn2)CC1` [CBK174054]: the viability at 28.5 h, 10 µM is 98.7%.
With `Cc1ccc(NC(=O)c2ccncc2)cc1C` [CBK174646], the viability at 28.5 h, 10 µM came out at 97.5%.
For `CCN1CCC[C@@H]1CNC(=O)c1ccncc1` [CBK174659], the viability at 28.5 h, 10 µM was determined as 113%.
Still for that read-out and setting: under `CCN1CCC[C@@H]1CNC(=O)c1cc(Cl)nc(OC)c1` [CBK174692] stands 88.3%.
Turning to `CCOC(=O)N1CCC2(CC1)OCc1ccc(Oc3ccncc3)cc1O2` [CBK174776], the viability at 28.5 h, 10 µM (bulk resorufin, single well) was 102%.
As to `CCOC(=O)N1CCC2(CC1)OCc1ccc(-c3ccc(S(C)(=O)=O)nc3)cc1O2` [CBK174780], the viability at 28.5 h, 10 µM (bulk resorufin, single well) came out at 92%.
For `CNc1nc(NC(C#N)c2ccccc2)ncc1N` (centres unmarked) [CBK174783], the viability at 28.5 h, 10 µM came out at 107%.
Turning to `COCC(=O)N1CCC(NC(=O)N(CCc2ccccc2)Cc2ccccc2)CC1` [CBK174877], the viability at 28.5 h, 10 µM is 102%.
For the molecule `COc1cccc(CSc2ccc(CN3CCOCC3)cc2F)c1` [CBK174976], the viability at 28.5 h, 10 µM came to 87.1%.
Turning to `CC(=O)c1ccc(NC(=O)Nc2nnc(CCN3CCCC3)s2)cc1` [CBK174990], the viability at 28.5 h, 10 µM amounted to 92.6%.
Regarding `CN(C)C(=O)c1ccc(-c2cnc(OCC3CCN(C(=O)OC(C)(C)C)CC3)cn2)cc1F` [CBK175076], the viability at 28.5 h, 10 µM turned out to be 118%.
`Cc1cc(C(=O)NCCO)ccc1Br` [CBK175092]: the viability at 28.5 h, 10 µM is 92%.
`O=C(O)CCc1cccnc1` [CBK175283]: the viability at 28.5 h, 10 µM came to 92.2%.
`CC(C)(C)c1csc(NC(=O)C2CC(=O)N(c3cccc(C(F)(F)F)c3)C2)n1` (centres unmarked) [CBK175545]: the viability at 28.5 h, 10 µM came out at 106%.
On the same count and under the same terms, under `CC(C)(C)c1csc(NC(=O)C2CC(=O)N(Cc3cccs3)C2)n1` (centres unmarked) [CBK175547] stands 109%; under `Brc1cccc(OCc2cccs2)c1` [CBK176011], 99%.
In the case of `Clc1cncc(OCCCCOc2ccccc2)n1` [CBK176018], the viability at 28.5 h, 10 µM amounted to 108%.
In the case of `Fc1ccccc1CCOc1cncc(Cl)n1` [CBK176038], the viability at 28.5 h, 10 µM was determined as 86%.
Same read-out and setting: under `Clc1cncc(OC(c2ccccc2)C2CC2)n1` (centres unmarked) [CBK176042] stands 78%; under `COc1ccc2cc(OCCO)ccc2c1` [CBK176054], 63.6%.
In the case of `COc1cccc(COc2cncc(Cl)n2)c1OC` [CBK176057], the viability at 28.5 h, 10 µM was 86.3%.
